Measured values reported in patent publication US12258308B2, “Benzene derivative” (ONO PHARMACEUTICAL CO., LTD., priority 2018, dated 2025).

Tested on: rat Schwann cells
Experiment: In vitro test using Schwann cells (Schwann cell differentiation promotion, MAG immunostaining)
Assay type: cell-based
Settings: 3 days, MAG-positive area/cell nuclei; for activity at 0.3 µM / activity at 3 µM: Rattus norvegicus, 72 h; for activity at 0.3 µM: read-out: Schwann cell differentiation promotion rate (% of vehicle) 0.3 μmol/L; for activity at 3 µM: read-out: Schwann cell differentiation promotion rate (% of vehicle) 3 μmol/L
Experimental: Biological Experiment Example 1: In Vitro Test Using Schwann Cells
• (1) Preparation of rat Schwann cells
A dorsal root ganglion (abbreviated as “DRG”, hereinafter) was excised from a newborn rat aged 0 to 2 days in a clean bench and was collected in DMEM. After the collection, the tube was centrifuged at 400 g, at room temperature for 3 minutes, then a supernatant was discarded, and a 0.25% collagenase solution was added. There resultant solution was incubated at 37° C. for 30 minutes to disperse and separate the excised DRG, and was then centrifuged at room temperature at 400 g for 3 minutes, then a supernatant was discarded, and then 0.25% Trypsin/EDTA and DNaseI were added. After the incubation at 37° C. for 30 minutes, trypsin was inactivated with DMEM supplemented with 10% FBS (10% FBS-DMEM), and centrifugation was carried out at room temperature at 400 g for 3 minutes. A supernatant was discarded, then 10% FBS-DMEM was added to the residue to prepare a cell suspension, and then the cell suspension was allowed to pass through a filter (diameter: 70 μm). The number of cells in the cell suspension which passed through the filter was counted to prepare a solution having a concentration of 2.0×10^5 cells/mL, and the suspension was seeded in a poly-D-lysine-coated 96-well black-clear plate in an amount of 100 μL/well and was then statically cultured in a CO2 incubator under the conditions including 5% of CO2, 95% of air and 37° C.
The culture medium in the cell culture plate was removed by suction using an aspirator, and then DMEM supplemented with 1% dialyzed FBS and 100 μmol/L dibutyryl cyclic AMP was added. Subsequently, a solution of a compound of the present invention dissolved in DMSO was added, and the resultant solution was statically cultured in a C02 incubator under the conditions including 5% of C02, 95% of air and a temperature of 37° C. The final concentration of the compound of the present invention in each well in the cell culture plate was adjusted to 0.1, 0.3, 1 or 3 μmol/L.
Three days after the treatment with the compound, formaldehyde was added to each well in the cell culture plate, and the cell culture plate was allowed to stand at room temperature for 30 minutes or longer. A supernatant was discarded, and then a 0.3% tritonX-100 solution was added to each well, and then the cell culture plate was allowed to stand at room temperature for 20 minutes or longer. A supernatant was discarded, then a 5-μg/mL anti-myeline-associated glycoprotein antibody (anti-MAG antibody) solution was added to each well, and then the cell culture plate was allowed to stand at room temperature for 60 minutes or longer or at 4° C. (acceptable range: 1 to 9° C.) overnight. Each well was washed with a 0.1% tritonX-100 solution three times, then a 10-μg/mL Alexa fluor 488 anti-mouse IgG solution was added to each well, and then the cell culture plate was allowed to stand at room temperature for 60 or longer or at 4° C. overnight. Each well was washed with a 0.1% tritonX-100 solution four times, and then a 1-μg/mL Hoechst33342 solution was added to each well to stain nuclei.
The Mag-positive area and the number of cell nuclei in a fluorescent image were calculated. With respect to each of the MAG-positive area and the number of cell nuclei, the sum total of values obtained in 5 viewing fields/well was determined. The values were employed as a value for the MAG-positive area and a value for the number of cell nuclei, respectively, in each well. Subsequently, a value determined by dividing the value for the MAG-positive area in each well by the value for the number of cell nuclei in the well (i.e., MAG/cell nuclei numerical value) was calculated. The Schwann cell differentiation promotion rate was determined for each of the vehicles in accordance with the following formula. […]

Compound | activity at 0.3 µM (compound 0.3 μmol/L) [%] | activity at 3 µM (compound 3 μmol/L) [%] | Schwann cell differentiation promotion rate (% of vehicle) 0.3 μmol/L (compound 0.3 μmol/L) | Schwann cell differentiation promotion rate (% of vehicle) 3 μmol/L (compound 3 μmol/L)
CC(C)OC(=O)CCc1ccccc1OCC[C@@H](O)/C=C/c1cccc(NS(=O)(=O)c2ccccc2)c1 [Example 10, Propan-2-yl 3-[2-[(E,3R)-5-[3-(benzenesulfonamido)phenyl]-3-hydroxypent-4-enoxy]phenyl]propanoate] | 86.2 | 593 | – | –
O=C(O)CCc1ccccc1OCC[C@@H](O)/C=C/c1ccccc1NC(=O)c1ccccc1 [Example 12(5), 3-[2-[(E,3R)-5-(2-Benzamidophenyl)-3-hydroxypent-4-enoxy]phenyl]propanoic acid] | 147 | 234 | – | –
O=C(O)CCc1ccccc1OCC[C@@H](O)/C=C/c1cccc(NCc2ccccc2)c1 [Example 12(6), 3-[2-[(E,3R)-5-[3-(Benzylamino)phenyl]-3-hydroxypent-4-enoxy]phenyl]propanoic acid] | 144 | 435 | – | –
O=C(O)CCc1ccccc1OCC[C@@H](O)/C=C/c1cccc(S(=O)(=O)Nc2ccccc2)c1 [Example 12(7), 3-[2-[(E,3R)-3-Hydroxy-5-[3-(phenylsulfamoyl)phenyl]pent-4-enoxy]phenyl]propanoic acid] | 111 | 379 | – | –
O=C(O)CCc1ccccc1OCC[C@@H](O)/C=C/c1cccc(C(=O)Nc2ccccc2)c1 [Example 12(8), 3-[2-[(E,3R)-3-Hydroxy-5-[3-(phenylcarbamoyl)phenyl]pent-4-enoxy]phenyl]propanoic acid] | 158 | 459 | – | –
O=C(O)CCc1ccccc1OCC[C@@H](O)/C=C/c1ccccc1CNS(=O)(=O)c1ccccc1 [Example 12(11), 3-[2-[(E,3R)-5-[2-(Benzenesulfonamidomethyl)phenyl]-3-hydroxypent-4-enoxy]phenyl]propanoic acid] | 203 | 505 | – | –
O=C(O)CCc1ccccc1OCC[C@@H](O)/C=C/c1ccc2c(c1)CN(S(=O)(=O)c1ccccc1)CC2 [Example 13(19), 3-[2-[(E,3R)-5-[2-(Benzenesulfonyl)-3,4-dihydro-1H-isoquinolin-7-yl]-3-hydroxypent-4-enoxy]phenyl]propanoic Acid] | 142 | 598 | – | –
O=C(O)CCc1ccccc1OCC[C@@H](O)/C=C/c1cccc(C[C@H](O)c2ccccc2)c1 [Example 26, 3-[2-[(E,3R)-3-Hydroxy-5-[3-[(2S)-2-hydroxy-2-phenylethyl]phenyl]pent-4-enoxy]phenyl]propanoic acid] | 196 | 439 | – | –
O=C(O)CCc1ccccc1OCC[C@@H](O)/C=C/c1cccc(C(O)CCc2ccccc2)c1 (stereo partly drawn) [Example 28, 3-[2-[(E,3R)-3-Hydroxy-5-[3-(1-hydroxy-3-phenylpropyl)phenyl]pent-4-enoxy]phenyl]propanoic acid] | 188 | 628 | – | –
O=C(CCc1ccccc1OCC[C@@H](O)/C=C/c1cccc(NS(=O)(=O)c2ccccc2)c1)N1CCOCC1 [Example 32(1), N-[3-[(E,3R)-3-Hydroxy-5-[2-(3-morpholin-4-yl-3-oxopropyl)phenoxy]pent-1-enyl]phenyl]benzenesulfonamide] | 408 | – | – | –
CN(C)C(=O)CCc1ccccc1OCC[C@@H](O)/C=C/c1cccc(NS(=O)(=O)c2ccccc2)c1 [Example 32(2), 3-[2-[(E,3R)-5-[3-(Benzenesulfonamido)phenyl]-3-hydroxypent-4-enoxy]phenyl]-N,N-dimethylpropanamide] | 340 | 788 | – | –
O=C(O)CCc1ccccc1OCC[C@@H](O)C1CC1c1cccc(NS(=O)(=O)c2ccccc2)c1 (stereo partly drawn) [Example 39, 3-[2-[(3R)-3-[2-[3-(Benzenesulfonamido)phenyl]cyclopropyl]-3-hydroxypropoxy]phenyl]propanoic acid] | 211 | 323 | – | –
O=C(O)CCc1ccccc1OCC[C@@H](O)/C=C/c1cccc(NS(=O)(=O)Cc2ccccc2)c1 [Example 74(15), 3-[2-[(E,3R)-5-[3-(Benzilsulfonylamino)phenyl]-3-hydroxypent-4-enoxy]phenyl]propanoic acid] | – | – | 204.5 % of vehicle | 428.1 % of vehicle
O=C(O)CCc1ccccc1OCC[C@@H](O)/C=C/c1cccc(NS(=O)(=O)c2ccccn2)c1 [Example 74(16), 3-[2-[(E,3R)-3-Hydroxy-5-[3-(pyridin-2-ylsulfonylamino)phenyl]pent-4-enoxy]phenyl]propanoic acid] | 212 | 300 | – | –
O=C(O)CCc1ccccc1OCC[C@@H](O)/C=C/c1cccc(NS(=O)(=O)c2coc3ccccc23)c1 [Example 74(17), 3-[2-[(E,3R)-5-[3-(1-Benzofuran-3-ylsulfonylamino)phenyl]-3-hydroxypent-4-enoxy]phenyl]propanoic acid] | 85.6 | 252 | – | –
O=C(O)CCc1ccccc1OCC[C@@H](O)/C=C/c1cccc(NS(=O)(=O)c2ccsc2)c1 [Example 74(19), 3-[2-[(E,3R)-3-Hydroxy-5-[3-(thiophen-3-ylsulfonylamino)phenyl]pent-4-enoxy]phenyl]propanoic Acid] | 187 | 270 | – | –
O=C(O)CCc1ccccc1OCC[C@@H](O)CCc1cccc(NS(=O)(=O)C2CCCC2)c1 [Example 75, 3-[2-[(3S)-5-[3-(Cyclopentylsulfonylamino)phenyl]-3-hydroxypentoxy]phenyl]propanoic Acid] | 181 | 244 | – | –
COC(=O)CCc1ccccc1OCCC(=O)/C=C/c1cccc(NS(=O)(=O)c2ccccc2)c1 [Example 77, Methyl 3-[2-[(E)-5-[3-(benzenesulfonamido)phenyl]-3-oxopent-4-enoxy]phenyl]propanoate] | 115 | 256 | – | –
O=C(O)CCc1ccccc1OCCC/C=C/c1nc(C(O)Cc2ccccc2)cs1 (centres unmarked) [Example 93, 3-[2-[(E)-5-[4-(1-Hydroxy-2-phenylethyl)-1,3-thiazol-2-yl]pent-4-enoxy]phenyl]propanoic acid] | 108 | 374 | – | –
O=C(O)CCc1ccccc1OCCCC(=O)CCc1cccc(NS(=O)(=O)c2ccccc2)c1 [Example 103, 3-[2-[6-[3-(Benzenesulfonamido)phenyl]-4-oxohexoxy]phenyl]propanoic acid] | 199 | 354 | – | –
O=C(O)CCc1ccccc1CCCC(=O)CCc1cccc(NS(=O)(=O)c2ccccc2)c1 [Example 112, 3-[2-[6-[3-(Benzenesulfonamido)phenyl]-4-oxohexyl]phenyl]propanoic acid] | 255 | 504 | – | –
O=C(O)CCc1ccccc1OCCC(F)(F)CCc1cccc(NS(=O)(=O)c2ccccc2)c1 [Example 139, 3-[2-[5-[3-(Benzenesulfonamido)phenyl]-3,3-difluoropentoxy]phenyl]propanoic acid] | 209 | 541 | – | –
O=C(O)CCc1ccccc1OCCOCCc1cccc(NS(=O)(=O)c2ccccc2)c1 [Example 149, 3-[2-[2-[2-[3-(Benzenesulfonamido)phenyl]ethoxy]ethoxy]phenyl]propanoic Acid] | 160 | 645 | – | –
O=C(O)CCc1ccccc1OCCCCCC1CCC(NS(=O)(=O)c2ccccc2)CC1 (centres unmarked) [Example 166, 3-[2-[5-[4-(Benzenesulfonamido)cyclohexyl]pentoxy]phenyl]propanoic acid] | 104 | 465 | – | –
